The term GI50 denotes the concentration giving 50% growth inhibition. Usually TGI stands for the concentration at which net growth stops. Lower therefore signals more potent growth arrest.

This assay has as its system MDA-MB-468 breast. Description: DTP human tumour cell line panel, 48 h.

Structures are written as SMILES. Several values for one entry are separate records, joined by “and”; a condition that tells them apart may be missing. Equal entries are not always repeated.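 Method: 48-hour compound exposure of cells in 96-well plates, five concentrations, linear interpolation of endpoints. Here, GI50 denotes the concentration required for 50% inhibition of growth. TGI is the concentration that stops growth completely.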

`COc1ccc2c(c1)nnc1c3cccnc3[nH]c21`: the GI50 is 0.0667 µM and 0.0556 µM; the TGI was 0.237 µM and 1.1 µM.

In the case of `CCc1c(C)c2cc(-n3c(-c4ccc(OC)cc4)csc3=N)c(O)c(C)c2oc1=O`, the GI50 is 1.93 µM and the concentration for total growth inhibition (TGI) stood at 7.76 µM.

For `O=C1/C(=C/c2ccc(C(F)(F)F)cc2)COc2ccc(O)c(O)c21`, the GI50 is 1.53 µM and the TGI stood at 2.99 µM.

With `Cc1c(C(N)=O)sc2nc(C)n(/N=c3\scc(-c4ccccc4)n3Cc3ccccc3)c(=O)c12`, the GI50 is 2.65 µM and the concentration for total growth inhibition (TGI) was > 100 µM.

On to `CCS(=O)(=O)c1ccc(OC)c(Nc2ncc(-c3cccc(F)c3)o2)c1`, for which the GI50 is > 25 µM and the total growth inhibition concentration (TGI) was > 25 µM.

As to `O=C1C(Cl)=C(NCCCN(CCCNC2=C(Cl)C(=O)c3ccccc3C2=O)C2=C(Cl)C(=O)c3ccccc3C2=O)C(=O)c2ccccc21`, the GI50 is 1.21 µM and the TGI was found to be 2.87 µM.

Turning to `COc1cc2nc(-c3ccc(C(F)(F)F)cc3)cc(OCCCNCC3CCCO3)c2cc1OC` (stereo not given), the GI50 was 8.89 µM and the TGI worked out at 23.3 µM.

Turning to `COc1ccc2nc3ccccc3c(NCCNCC(C)O)c2c1` (stereo not given), the GI50 was 0.3 µM and the TGI was 0.953 µM.

With `COc1cc(C2NC(=O)C(C#N)=C(Nc3cccc(C)c3)S2)ccc1O` (stereo not given), the GI50 was > 100 µM and the total growth inhibition concentration (TGI) is > 100 µM.

As for `COc1cc(-c2ccc[nH]2)[nH]c1/C=C1\N=C(C)C(CC(=O)OCC(C)(C)C)=C1C`, the 50% growth inhibitory concentration (GI50) is 0.082 µM and the concentration for total growth inhibition (TGI) came to 1.19 µM.

Turning to `C[C@]12CCC(=O)C[C@@H]1CC[C@@H]1[C@@H]2CC[C@]2(C)[C@@H](OC(=O)N(CCCl)N=O)CC[C@@H]12`, the GI50 is 1.06 µM and the TGI came to 4.72 µM.

Consider `COc1ccc2c(c1)-c1c(c3cc(OC)ccc3n(CCN(C)C)c1=O)C2=O`, for which the GI50 was 1.75 µM and the TGI was 9.19 µM.

On to `CC(=O)c1c(C)c2cnc(Nc3ccc(N4CCNCC4)cn3)nc2n(C2CCCC2)c1=O`, for which the GI50 is 3.54 µM and the TGI was determined as 15.7 µM.

Consider `COc1ccc(-c2c(-c3ccc(C#N)c(F)c3)nc(N3CCC(N)CC3)n(C)c2=O)cc1F`, for which the GI50 was 7.91 µM and the TGI worked out at 23.2 µM.

With `O=C1Cc2cc(CCN3CCNCC3)c(Cl)cc2N1`, the GI50 was 2.24 µM and the total growth inhibition concentration (TGI) came out at 7.42 µM.

As for `CNC(=O)c1cc(Oc2ccc(NC(=O)Nc3cc(C(C)(C)C)nn3-c3ccc4ncccc4c3)c(F)c2)ccn1`, the GI50 was 1.95 µM and 2.43 µM; the TGI is 4.53 µM and 5.19 µM.

On to `O=C1/C(=C/c2ccc([N+](=O)[O-])o2)Oc2ccc(Cl)cc21`, for which the GI50 is 1.55 µM and the TGI amounted to 3.45 µM.

Turning to `COC(=O)c1cc(-c2ccc(S(C)(=O)=O)cc2)[nH]c1N/N=C/c1c(Cl)cccc1Cl`, the GI50 was 4.27 µM and the TGI was > 100 µM.

Consider `COc1cnccc1Nc1nc(-c2nn(Cc3c(F)cc(OCCO)cc3F)c3ccccc23)ncc1OC`, for which the GI50 was 2.26 µM and the total growth inhibition concentration (TGI) was 10.6 µM.

Turning to `C=C(C)C(=O)Nc1ccc(-c2c(-c3ccc(Oc4nccc(C)n4)c(F)c3)c3c(N)ncnc3n2C)cc1`, the GI50 is 1.83 µM and the total growth inhibition concentration (TGI) was 6.83 µM.

In the case of `Cc1cc(N2CCOCC2)nc(NCc2cc(Nc3ccnc4cc(Cl)ccc34)ccc2F)n1`, the GI50 was 1.89 µM and the concentration for total growth inhibition (TGI) was 3.91 µM.

Take `CNc1cc(-c2cccc(OC(F)(F)F)c2)nc2ccc(N3CCCC3)cc12`: the GI50 is 2.11 µM and 1.83 µM; the concentration for total growth inhibition (TGI) is 3.87 µM and 3.49 µM.

Consider `Cc1cc(N(CCNc2ccnc3cc(Cl)ccc23)Cc2ccc3c(c2)OCO3)nc(N2CCCC2)n1`, for which the GI50 was 1.47 µM and the total growth inhibition concentration (TGI) was found to be 3.74 µM.

For `S=C(SSC(=S)N1CCCCC1)N1CCCCC1`, the GI50 was 16.9 µM and the TGI came to 69.8 µM.

Regarding `CC12O[C@H](C[C@@H](OC(=O)CCC(=O)O)[C@H]1O)n1c3ccccc3c3c4c(c5c6ccccc6n2c5c31)C(=O)NC4=O`, the GI50 was 1.72 µM and the total growth inhibition concentration (TGI) was 10.8 µM.

Regarding `Fc1ccc(Nc2nc(Nc3ccc(-c4nc5ccccc5[nH]4)cc3)c3cn[nH]c3n2)cc1`, the GI50 was 1.91 µM and the total growth inhibition concentration (TGI) stood at 3.74 µM.

Turning to `COC(=O)CC1=C(C)/C(=C/c2[nH]c(-c3ccc[nH]3)cc2OC)N=C1C`, the GI50 is 0.162 µM and the total growth inhibition concentration (TGI) came out at 1.76 µM.

For the compound `C(=N\Nc1ccc2ccccc2n1)/c1ccccn1`, the 50% growth inhibitory concentration (GI50) was 0.313 µM and the TGI worked out at 2.46 µM.

Turning to `O=C(CI)Nc1ccc(Br)cc1`, the GI50 was 1.83 µM and the TGI stood at 3.74 µM.

Take `CN(C)c1ccc2[nH]c3c(C(N)=O)cc(=O)c(=O)c=3oc2c1`: the GI50 was 2.02 µM and the TGI amounted to 5.52 µM.

As for `O=C1NC(=NCCc2ccc(Br)cc2)S/C1=C\c1ccc2ncccc2c1`, the GI50 is > 16.5 µM and the TGI is > 25 µM.

Take `CCC(=O)Nc1nnc(Cc2ccc(OC)c(OC)c2)s1`: the GI50 was > 100 µM and the TGI was > 100 µM.

Take `CC(C)(C)[Si](C)(C)OC1[C@@H](COC(=O)NC(=O)CCl)O[C@@H](n2cnc3c(N)ncnc32)[C@H]1O[Si](C)(C)C(C)(C)C` (stereo not given in full): the GI50 was 3.84 µM and the concentration for total growth inhibition (TGI) stood at 11.1 µM.

With `CN1CCN(c2ccc(NC3=CC(=O)c4ncncc4C3=O)cc2)CC1`, the GI50 was 0.189 µM and the total growth inhibition concentration (TGI) is 0.416 µM.

Consider `CSc1nc2c(c(=O)n1C)C(c1ccccc1)C1=C(N2)/C(=C/c2ccccc2)CCC1` (stereo not given), for which the GI50 is 2.84 µM and the TGI was determined as 29.7 µM.

For `CCCCCCCCN=C(NCCCCCCCC)SCc1cccc2ccccc12`, the GI50 was 1.41 µM and the TGI came to 2.81 µM.

Take `COc1cc(C(=O)n2nc(N)c3c(C)cc(C)nc32)cc(OC)c1OC`: the GI50 was 2.92 µM and the concentration for total growth inhibition (TGI) was > 100 µM.

`Oc1[nH]c2ccccc2c1C=Nc1ccc(-n2cncn2)cc1`: the GI50 is > 20.7 µM and the TGI is > 25 µM.

For `CCOCCOCCOCCOCCOCCOCCOCCOCCOCCO` (tested in a mixture with another compound), the 50% growth inhibitory concentration (GI50) is 0.372 µM and the total growth inhibition concentration (TGI) was found to be 2.18 µM.

As for `CCOC(=O)/C=C1/SC(=Nc2ccc(C#N)cc2)N(Cc2ccco2)C1=O`, the GI50 is 2.97 µM and the TGI was determined as 14.2 µM.

In the case of `COc1ccc([I+]c2ccc(OC)cc2)cc1`, the GI50 was 0.256 µM and the TGI stood at 17.9 µM.

Regarding `CC/C=C\C[C@H]1C/C=C2/C(=O)C(Cl)=C[C@@H]2C/C=C\CCCC(=O)O1`, the GI50 is 0.309 µM and the concentration for total growth inhibition (TGI) worked out at 0.869 µM.

For `CCN1C(=O)N(CC)C2C1N=C(SC)N2/N=C/C=C/c1ccccc1OC` (stereo not given), the GI50 was 0.256 µM and the total growth inhibition concentration (TGI) is 0.729 µM.

With `COc1ccc(-c2[nH]ncc2Nc2cc(OC)c(OC)c(OC)c2)cc1`, the GI50 is 0.435 µM and the TGI was 52.3 µM.

For the compound `CC1=C[C@@H]2c3c(c(O)c(O)c4oc5cc(O)cc(O)c5c(=O)c34)[C@@H](c3cc(O)c(O)c4oc5cc(O)cc(O)c5c(=O)c34)[C@@H]2C(C)(C)C1`, the GI50 was 3.35 µM and the total growth inhibition concentration (TGI) worked out at 16.2 µM.

Source of the values: PubChem BioAssay (NCI).
